Experiments:
Adenosine receptor A1 [1] = target: T1, Adenosine receptor A1 (Rattus norvegicus, UniProt P25099); assay: Inhibition of photolabeling of 34 kDa polypeptide in adenosine A1 receptor
T1 sequence (P25099 whole entry): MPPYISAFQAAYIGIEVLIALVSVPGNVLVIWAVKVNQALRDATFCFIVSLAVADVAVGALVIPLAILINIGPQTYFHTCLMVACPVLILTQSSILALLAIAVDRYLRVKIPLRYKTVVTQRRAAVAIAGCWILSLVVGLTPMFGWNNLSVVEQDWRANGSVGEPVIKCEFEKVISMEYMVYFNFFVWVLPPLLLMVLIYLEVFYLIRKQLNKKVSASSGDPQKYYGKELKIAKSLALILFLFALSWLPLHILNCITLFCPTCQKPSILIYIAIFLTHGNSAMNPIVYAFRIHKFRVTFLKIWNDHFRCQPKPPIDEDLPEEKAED

[2] = target: T2, Adenosine receptor A1 (Rattus norvegicus) (UniProt P25099); assay: Bmax value against A1 receptor
T2 sequence (whole entry): T1 sequence (P25099 whole entry)

Adenosine receptor A1 [3] = target: T1, Adenosine receptor A1; assay: Binding affinity towards adenosine A1 receptor in rat brain membrane(KD); type: tissue-based

IC50 (Adenosine receptor A1 [1])	Bmax [2]	Kd (Adenosine receptor A1 [3])	SMILES
16 nM	–	–	CCCn1c(=O)c2nc(-c3ccc(OCC(=O)O)cc3)[nH]c2n(CCc2ccc(N)cc2)c1=O
–	485 fmol/mg	0.8 nM	CCCn1c(=O)c2nc(-c3ccc(OCC(=O)O)cc3)[nH]c2n(CCc2ccc(N)c(I)c2)c1=O
–	485 fmol/mg	0.8 nM	CCCn1c(=O)c2nc(-c3ccc(OCC(=O)O)cc3)[nH]c2n(Cc2ccc(N)c(I)c2)c1=O
–	–	1.2 nM	CCCn1c(=O)c2nc(-c3ccc(OCC(=O)O)cc3)[nH]c2n(CCc2ccc(N=[N+]=[N-])c(I)c2)c1=O

Source: ChEMBL document CHEMBL1124077, “Photoaffinity labeling adenosine A1 receptors with an antagonist 125I-labeled aryl azide derivative of 8-phenylxanthine” (J Med Chem, 1988)
